Common to all, as to format: in vivo
For test [1], the system named is Panelists. As to the kind of experiment: Umami enhancement of MSG: panel sensory rating of aqueous sodium chloride/MSG samples. Particulars: mean, scale of 0 to 10; for Lasting Umami Intensity: Sample C 3.1; for Saltiness Intensity: Sample C 3.6; for Umami Intensity: Sample C 4.0. As to the method: A series of test samples and a comparative sample were prepared. The comparative sample (C) contained 0.3 wt % sodium chloride and 0.05 wt % MSG. Two test samples were prepared. Each test sample contained sodium chloride and MSG in the same amounts as the comparative sample plus 2 ppm of TM1 (sample S1) or 5 ppm of TM1 (sample S2). Panelists were asked to rate the intensity of certain sensory features of the samples on a scale of 0 to 10. Higher numbers indicate greater intensity.

In test [2] the test system is Panelists. As to the kind of experiment: Flavor modification of chicken broth: panel sensory rating. Particulars: 0.7 wt % sodium chloride, 0.04 wt % MSG, mean, scale of 0 to 10; for Lasting Umami Intensity: Sample C 3.1; for Umami Intensity: Sample C 4.3; for White Meat Intensity: Sample C 4.8; for Saltiness Intensity: Sample C 4.9; for Chicken Flavor Intensity: Sample C 5.3. As for the experimental part:
A series of test samples and a comparative sample were prepared. The comparative sample (C) was a standard reconstituted chicken broth solution containing 0.7 wt % sodium chloride and 0.04 wt % MSG. Two test samples were prepared. Each test sample contained chicken broth, sodium chloride, and MSG in the same amounts as the comparative sample plus 3 ppm of TM1 (sample S1) or 5 ppm of TM1 (sample S2). Panelists were asked to rate the intensity of certain sensory features of the samples on a scale of 0 to 10. Higher numbers indicate greater intensity.

Test [3] relates to Panelists. The test can be described thus: MSG reduction with soy-based vegan chicken nugget: panel sensory rating. Particulars: Sample S1: 5 ppm TM1 in soy-based vegan chicken nugget, 1.68 wt % flavoring (chicken), 0.4 wt % MSG, 0.03 wt % purinic ribonucleotide, mean, scale of 0 to 10. As to the method: (§1) A test sample and a comparative sample were prepared. The comparative (sample C) was a standard soy-based vegan chicken nugget having 1.68 wt % flavoring (chicken), 0.4 wt % MSG, and 0.03 wt % purinic ribonucleotide. The test sample contained flavoring, MSG, and purinic ribonucleotide in the same amounts as the comparative sample plus 5 ppm of TM1 (sample S1). Panelists were asked to rate the intensity of certain sensory features of the samples on a scale of 0 to 10. Higher numbers indicate greater intensity.

Test [4] concerns Panelists. The test can be described thus: MSG reduction with potato crisp: panel sensory rating. Particulars: Sample S1: 5 ppm TM1 on potato crisp, 2 wt % flavoring (sour cream and onion), 0.03 wt % MSG, 0.008 wt % purinic ribonucleotide, mean, scale of 0 to 10. As to the method:
as §1, with “potato crisp” for “soy-based vegan chicken nugget”, “2” for “1.68”, “(sour cream and onion), 0.03” for “(chicken), 0.4”, “0.008” for “0.03”, “ribonucleotide. This reflects a 75% reduction of the standard amount of MSG used in such products (0.12 wt %).” for “ribonucleotide.”

Setting [5] is: Sample S1: 2 ppm TM1 + 0.3 wt % sodium chloride + 0.05 wt % MSG.
Where [6] appears, read: Sample S2: 5 ppm TM1 + 0.3 wt % sodium chloride + 0.05 wt % MSG, * significant vs C.
[7] abbreviates: Sample S1: 3 ppm TM1 in chicken broth, * significant vs C.
Setting [8] is: Sample S2: 5 ppm TM1 in chicken broth, * significant vs C.
Setting [9] is: Sample S2: 5 ppm TM1 in chicken broth.
Where [10] appears, read: Sample C 2.1, * significant vs C.

For the molecule `C/C(=C\CO)C(=O)NCCCCNC(=O)/C=C/c1ccccc1` [TM1, (E)-N-(4-cinnamamidobutyl)-4-hydroxy-2-methylbut-2-enamide], the “Lasting Umami Intensity” value is listed as 4.2* in test [1] (Sample S1: 2 ppm TM1 + 0.3 wt % sodium chloride + 0.05 wt % MSG, * significant vs C); 5.4* in test [1] (setting [6]); 4.2* in test [2] (setting [7]); 5.4* in test [2] (setting [8]); 2.8* in test [4] (setting [10]). Further, the “Saltiness Intensity” value is 3.8 in test [1] (setting [5]); 3.8 in test [1] (Sample S2: 5 ppm TM1 + 0.3 wt % sodium chloride + 0.05 wt % MSG); 5.2 in test [2] (Sample S1: 3 ppm TM1 in chicken broth); 4.8 in test [2] (setting [9]); 4.4 in test [3] (Sample C 4.6); 3.1 in test [4] (Sample C 2.9). The “Umami Intensity” value was 4.8 in test [1] (setting [5]); 6.0* in test [1] (setting [6]); 5.8* in test [2] (setting [7]); 6.2* in test [2] (setting [8]); 5.8* in test [3] (Sample C 5.1, * significant vs C); 3.6* in test [4] (Sample C 3.0, * significant vs C). Besides, the “White Meat Intensity” value is given as 5.8* in test [2] (setting [7]) and 4.8 in test [2] (setting [9]). Also, the “Chicken Flavor Intensity” value was 6.0* in test [2] (setting [7]) and 5.8 in test [2] (setting [9]). In addition, the “Sour Intensity” value in test [4] (setting [10]) is listed as 2.9*.

Source of the values: patent US20260150871A1, “TASTE MODIFYING COMPOSITIONS AND USES THEREOF” (Firmenich Incorporated, priority 2022, published 2026).
